US8071637B2, “Dithiolopyrrolones compounds and their therapeutic applications” (Welichem Biotech Inc., priority 2006, dated 2011)

Tests used:
[1] = tested on: white blood cells; assay: Therapeutical effect on white blood cells of mice pretreated with CTX; type: in vivo, CDF1 male mice; conditions: for number of white blood cell account, Day 6: Day 6: after CTX 30 mg/kg IP daily for 6 days, before therapeutical treatment started on 7th day
Description: This activity was determined using CDF1 male mice: mice were grouped and treated with daily CTX IP injection of 30 mg/kg for 6 days. […] Positive control group was treated with daily subcutaneously injection of 20 μg/kg G-CSF. Peripheral blood samples were collected and blood cells counted on the 10th day.

[2] = tested on: mouse peripheral white blood cells; assay: Activity of increasing white blood cells (WBC) in mice; type: in vivo, CDF1 male mice; conditions: peripheral blood on day 7
Description: This activity was determined using CDF1 male mice (18-20 g): mice were grouped as: vehicle, 30 mg/kg cyclophosphamide (CTX), 15 mg/kg test compounds. The mice were treated by IP injection: test compounds on day 1, 3, and 5 for three doses, vehicle and CTX daily for 6 days. On day 7, peripheral blood samples were collected and blood cells counted.

[3] = tested on: white blood cells of beagle dog; assay: Activity of increasing WBC in dogs; type: in vivo; conditions: for WBC: blood count day 5; for % increase (compared with the control): day 5
Description: The effect of the test compounds was tested on beagle dog with a daily IV injection at different doses for four days. The blood account was done at day 5.

Molecule | number of white blood cell account, Day 6 [1] | number of white blood cell account, Day 10 ([1]; Day 10: CTX 30 mg/kg IP daily for 6 days only) | WBC ([2]; CTX 30 mg/kg IP daily for 6 days) | number of white blood cell account, Day 10 ([1]; Day 10: CTX 30 mg/kg x 6 days, then test compound 15 mg/kg daily for 3 days from day 7) | WBC ([2]; test compound 15 mg/kg IP on day 1, 3 and 5) | WBC ([3]; 1 mg/kg daily IV for four days) | % increase (compared with the control) ([3]; 1 mg/kg daily IV for four days) | WBC ([3]; 2 mg/kg daily IV for four days) | % increase (compared with the control) ([3]; 2 mg/kg daily IV for four days) | WBC ([3]; 4 mg/kg daily IV for four days) | % increase (compared with the control) ([3]; 4 mg/kg daily IV for four days) | WBC ([3]; 8 mg/kg daily IV for four days) | % increase (compared with the control) ([3]; 8 mg/kg daily IV for four days) | effect on white blood accounts in dogs (in words) ([3]; daily IV, 1-8 mg/kg, four days) | number of white blood cell account, Day 10 ([1]; Day 10: CTX 30 mg/kg x 6 days, then G-CSF 20 μg/kg daily subcutaneously (positive control))
O=P1(N(CCCl)CCCl)NCCCO1 (centres unmarked) [CTX, cyclophosphamide, reference compound] | 1.5 ± 0.2 ×10^9/L | 4.8 ± 0.8 ×10^9/L | 1.41 ± 0.50 ×10^9/L | – | – | – | – | – | – | – | – | – | – | – | –
COc1ccc(-n2c3cssc-3c(NC(=O)c3cc(C(F)(F)F)cc(C(F)(F)F)c3)c2=O)c(OC)c1 [compound 0058, N-[4-(2,4-Dimethoxy-phenyl)-5-oxo-4,5-dihydro-[1,2]dithiolo[4,3-b]pyrrol-6-yl]-3,5-bis-trifluoromethyl-benzamide] | 2.1 ± 0.8 ×10^9/L | – | – | 16.2 ± 2.1 ×10^9/L | 23.9 ± 8.9 ×10^9/L | 13.0 ± 2.0 ×10^9/L | 15.9% | 16.8 ± 1.0 ×10^9/L | 48.2% | 21.5 ± 4.1 ×10^9/L | 90.3% | 28.8 ± 7.0 ×10^9/L | 154.9% | significantly increased white blood accounts | –
G-CSF: granulocyte-colony stimulating factor, protein that selectively stimulates production of white blood cells; positive control (protein, chains of the INN, looked up, N-terminal methionine, non-glycosylated) MTPLGPASSLPQSFLLKCLEQVRKIQGDGAALQEKLCATYKLCHPEELVLLGHSLGIPWAPLSSCPSQALQLAGCLSQLHSGLFLYQGLLQALEGISPELGPTLDTLQLDVADFATTIWQQMEELGMAPALQPTQGAMPAFASAFQRRAGGVLVASHLQSFLEVSYRVLRHLAQP | 1.8 ± 0.7 ×10^9/L | – | – | – | – | – | – | – | – | – | – | – | – | – | 14.7 ± 1.8 ×10^9/L
